According to patent publication US8604016B2, “Heterocyclic inhibitors of glutaminase” (Calithera Biosciences Inc., priority 2011, dated 2013):

What was measured:
[1] = biological target: T1, recombinant form of Glutaminase 1 (GAC) (Homo sapiens, UniProt O94925); test: Recombinant Enzyme Assay - Time Dependence (60 minutes enzyme/compound preincubation); type: biochemical
Protocol: The enzyme/compound mix was sealed with sealing foil (USA Scientific) and allowed to incubate, with mild agitation, for 60 minutes at 20° C. Enzymatic reaction was started with the addition of 50 μL of substrate solution (50 mM Tris-HCl pH 8.0, 0.2 mM EDTA, 150 mM K2HPO4, 0.1 mg/ml BSA, 1 mM DTT, 20 mM L-glutamine, 2 mM NAD^+, and 10 ppm antifoam) and read in a Molecular Devices M5 plate reader at 20° C. The plate reader was configured to read absorbance (λ=340 nm) in kinetic mode for 15 minutes. Data was recorded as milli-absorbance units per minute and slopes were compared to a control compound and a DMSO-only control on the same plate. Compounds with slopes less than the DMSO control were considered inhibitors and plate variability was assessed using the control compound.

[2] = biological target: T1, recombinant form of Glutaminase 1 (GAC); test: Recombinant Enzyme Assay (GAC coupled to GDH, NADH absorbance, no preincubation); type: biochemical; conditions: no preincubation; read-out: GAC Delta N2 IC50 no preinc
Summary of the method: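 GAC (4 nM) in Tris-HCl pH 8.0 with 150 mM K2HPO4, EDTA, BSA, DTT, plus 4 units/ml GDH and 4 mM ADP, without preincubation. Absorbance at 340 nm was read kinetically for 15 min at 20° C. Slopes (mAU/min) were compared with DMSO-only and control-compound wells on the same plate.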

[3] = system: Caco-2 cell monolayers; test: Caco-2 Permeability Assay (bidirectional); type: in vitro ADME
From the text: (§1) Caco-2 cells are commonly used in a confluent monolayer on a cell culture insert filter. When cultured in this format and under specific conditions, the cells become differentiated and polarized such that their phenotype, morphologically and functionally resembles the enterocytes lining the small intestine. The cell monolayer provides a physical and biochemical barrier to the passage of small molecules, and is widely used across the pharmaceutical industry as an in vitro model of the human small intestinal mucosa to predict the absorption of orally administered drugs (Hidalgo et al., Gastroenterology, 1989; Artursson, J. Pharm. Sci., 1990). The correlation between the in vitro apparent permeability (P ? app) across Caco-2 monolayers and the in vivo absorption is well established (Artursson et al., Biochem. Biophys. Res. Comm., 1991).
(§2) The present assay was used to determine the bidirectional permeability of the compounds of the invention through Caco-2 cell monolayers. Caco-2 cells were grown in confluent monolayers where the media of both the apical (A) and basolateral (B) sides were at pH 7.4. Compounds were dosed at 1 μM in the presence of 200 μM Lucifer Yellow, on the apical side (A→B) or the basolateral side (B→A) for assessment, in duplicate.
(§3) The absorption potential of compounds were classified as either Low (P-app <1×10^−6 cm/s) or High (P-app >1×10^−6 cm/s).

[4] = Caco-2 Permeability Assay (bidirectional); type: in vitro ADME; conditions: human; for recovery at 120 min, 1 μM / Papp A→B at 120 min, 1 μM / Papp B→A at 120 min, 1 μM: pH 7.4; for efflux ratio at 120 min, 1 µM / Papp A→B at 120 min, 1 μM / Papp B→A at 120 min, 1 μM / permeability class (Low/High absorption potential) at 120 min, 1 µM: Caco-2; for efflux ratio at 120 min, 1 µM: (Papp B→A)/(Papp A→B); for Papp A→B at 120 min, 1 μM: Direction A→B; for Papp A→B at 120 min, 1 μM / Papp B→A at 120 min, 1 μM: unit not given (thresholds in 10^−6 cm/s); for Papp B→A at 120 min, 1 μM: Direction B→A; for permeability class (Low/High absorption potential) at 120 min, 1 µM: read-out: Permeability Classification
From the text: as §1, §2, §3

[5] = read-out: GAC Delta N2 IC50 60 min preinc
[6] = read-out: GAC Delta N2 IC50 60 min

Row | Compound | Significant Efflux [3] | recovery at 120 min, 1 μM ([4]; Caco-2, pH 7.4, Direction A→B) | recovery at 120 min, 1 μM ([4]; Caco-2, pH 7.4, Direction B→A) | Papp A→B at 120 min, 1 μM [4] | Papp B→A at 120 min, 1 μM [4] | permeability class (Low/High absorption potential) at 120 min, 1 µM [4] | IC50 [1, 6] | other results
1 | CC(C)(C)OC(=O)N1CCN(Cc2cccc(CC(=O)Nc3nnc(CCSCc4nnc(NC(=O)Cc5cccc(CN6CCN(C(=O)OC(C)(C)C)CC6)c5)s4)s3)c2)CC1 [Compound 275] |  |  |  |  |  |  |  | IC50 [1, 5]: 150 nM; IC50 [2]: 2200 nM
2 | O=C(Cc1ccccc1)Nc1nnc(CCCCc2nnc(NC(=O)C(O)c3cccc(Cl)c3)s2)s1 (stereo not drawn) [Compound 527] |  |  |  |  |  |  |  | IC50 [1, 5]: 24 nM; IC50 [2]: 130 nM
3 | O=C(Cc1cccc(OC(F)(F)F)c1)Nc1ccc(CCCCc2nnc(NC(=O)Cc3cccc(OC(F)(F)F)c3)s2)nn1 [Compound 660] | Yes (efflux ratios being significant when greater than or equal to 3 when the Papp (B→A) was greater than or equal to 1×10^−6 cm/s) | 56% | 68% | 0.61 ×10⁻⁶ cm/s | 2.37 ×10⁻⁶ cm/s | < 1 ×10⁻⁶ cm/s |  | efflux ratio at 120 min, 1 µM [4]: 3.9
4 | O=C(Cc1ccccc1)Nc1ccc(CCCCc2nnc(NC(=O)C(O)c3cccc(Cl)c3)s2)nn1 (stereo not drawn) [Compound 318] | Yes (efflux ratios being significant when greater than or equal to 3 when the Papp (B→A) was greater than or equal to 1×10^−6 cm/s) | 73% | 82% | 2.45 ×10⁻⁶ cm/s | 44.5 ×10⁻⁶ cm/s | > 1 ×10⁻⁶ cm/s |  | efflux ratio at 120 min, 1 µM [4]: 18
5 | O=C(Cc1ccccc1)Nc1ccc(CCCCc2nnc(NC(=O)Cc3ccccn3)s2)nn1 [Compound 354] | Yes (efflux ratios being significant when greater than or equal to 3 when the Papp (B→A) was greater than or equal to 1×10^−6 cm/s) | 117% | 101% | 1.38 ×10⁻⁶ cm/s | 45 ×10⁻⁶ cm/s | > 1 ×10⁻⁶ cm/s |  | 
6 | O=C(Nc1nnc(CCCCc2nnc(NC(=O)C(O)c3cccc(Cl)c3)s2)s1)C(O)c1cccc(Cl)c1 (stereo not drawn) [Compound 306] |  |  |  |  |  |  |  | IC50 [1, 5]: 31 nM; IC50 [2]: 520 nM
7 | CC(C)(C)OC(=O)NCc1cccc(CC(=O)Nc2nnc(CCCCc3ccc(NC(=O)Cc4ccccc4)nn3)s2)c1 [Compound 339] | Yes (efflux ratios being significant when greater than or equal to 3 when the Papp (B→A) was greater than or equal to 1×10^−6 cm/s) | 73% | 80% | 2.39 ×10⁻⁶ cm/s | 41.6 ×10⁻⁶ cm/s | > 1 ×10⁻⁶ cm/s |  | 
8 | O=C(Nc1nnc(CCCCc2nnc(NC(=O)[C@@H](O)c3ccccc3)s2)s1)[C@@H](O)c1ccccc1 [Compound 92] |  |  |  |  |  |  |  | IC50 [1, 5]: 140 nM; IC50 [2]: 380 nM
9 | O=C(Cc1cccc(Br)c1)Nc1nnc(CCSCCc2nnc(NC(=O)Cc3cccc(Br)c3)s2)s1 [Compound 270] |  |  |  |  |  |  |  | IC50 [1, 5]: > 5000 nM; IC50 [2]: 7400 nM
10 | O=C(Cc1cccc(OC(F)(F)F)c1)Nc1ccc(CCCCc2nnc(NC(=O)Cc3cccc(F)c3)s2)nn1 [Compound 679] | No (efflux ratios being significant when greater than or equal to 3 when the Papp (B→A) was greater than or equal to 1×10^−6 cm/s) | 34% | 42% | 7.59 ×10⁻⁶ cm/s | 19.6 ×10⁻⁶ cm/s | > 1 ×10⁻⁶ cm/s |  | efflux ratio at 120 min, 1 µM [4]: 2.6
11 | O=C(Cc1cccc(OC(F)(F)F)c1)Nc1ccc(CCCCc2nnc(NC(=O)[C@H](O)c3ccccc3)s2)nn1 [Compound 705] | Yes (efflux ratios being significant when greater than or equal to 3 when the Papp (B→A) was greater than or equal to 1×10^−6 cm/s) | 60% | 67% | 8.52 ×10⁻⁶ cm/s | 51 ×10⁻⁶ cm/s | > 1 ×10⁻⁶ cm/s |  | efflux ratio at 120 min, 1 µM [4]: 6
12 | CC(C(=O)Nc1ccc(CCCCc2nnc(NC(=O)Cc3cccc(CNC(=O)OC(C)(C)C)c3)s2)nn1)c1ccccc1 (stereo not drawn) [Compound 436] | Yes (efflux ratios being significant when greater than or equal to 3 when the Papp (B→A) was greater than or equal to 1×10^−6 cm/s) | 44% | 57% | 3.75 ×10⁻⁶ cm/s | 24.7 ×10⁻⁶ cm/s | > 1 ×10⁻⁶ cm/s |  | efflux ratio at 120 min, 1 µM [4]: 6.6
13 | O=C(Cc1ccccc1)Nc1ccc(CCCCc2nnc(NC(=O)C(OC(=O)CCN3CCOCC3)c3cccc(Cl)c3)s2)nn1 (stereo not drawn) [Compound 389] |  |  |  |  |  |  |  | IC50 [1, 5]: 84 nM
14 | CCCC(=O)OCN(C(=O)Cc1ccccc1)c1nnc(CCCCc2ccc(NC(=O)Cc3cccc(OC(F)(F)F)c3)nn2)s1 [Compound 629] |  |  |  |  |  |  | > 20000 nM | 
15 | CN(C)Cc1cccc(CC(=O)Nc2nnc(CCCCc3nnc(NC(=O)Cc4ccccc4)s3)s2)c1 [Compound 394] |  |  |  |  |  |  | 88 nM | 
16 | CC(C(=O)Nc1nnc(CCCCc2ccc(NC(=O)Cc3cccc(CNC(=O)OCCF)c3)nn2)s1)c1ccccc1 (stereo not drawn) [Compound 591] |  |  |  |  |  |  | 4 nM | 
17 | COC(C(=O)Nc1ccc(CCCCc2nnc(NC(=O)Cc3cccc(CNC(=O)OC(C)(C)C)c3)s2)nn1)c1ccccc1 (stereo not drawn) [Compound 508] |  |  |  |  |  |  | 11 nM | 
18 | COC(C(=O)Nc1nnc(CCCCc2ccc(NC(=O)Cc3cccc(CNC(=O)OC(C)(C)C)c3)nn2)s1)c1ccccc1 (stereo not drawn) [Compound 509] |  |  |  |  |  |  | 10 nM | 
19 | CC(C)(C)OC(=O)NCc1cccc(CC(=O)Nc2nnc(CCCCc3ccc(NC(=O)C(O)c4cccc(Cl)c4)nn3)s2)c1 (stereo not drawn) [Compound 422] |  |  |  |  |  |  | 7 nM | 
20 | CC(C)(C)OC(=O)N1CCN(Cc2cc(CC(=O)Nc3nnc(CCCCc4ccc(NC(=O)Cc5ccccc5)nn4)s3)ccc2F)CC1 [Compound 493] |  |  |  |  |  |  | 19 nM | 
21 | O=C(Nc1nnc(CCCCc2nnc(NC(=O)C(O)c3cccc(Br)c3)s2)s1)C(O)c1cccc(Br)c1 (stereo not drawn) [Compound 288] |  |  |  |  |  |  |  | IC50 [1, 5]: 40 nM; IC50 [2]: 670 nM
22 | CC(C(=O)Nc1nnc(CCCCc2ccc(NC(=O)Cc3cccc(CNC(=O)OC(C)(C)C)c3)nn2)s1)c1ccccc1 (stereo not drawn) [Compound 489] |  |  |  |  |  |  | 8 nM | 
23 | CC(C(=O)Nc1nnc(CCCCc2ccc(NC(=O)Cc3ccccc3)nn2)s1)c1ccccc1 (stereo not drawn) [Compound 616] | Yes (efflux ratios being significant when greater than or equal to 3 when the Papp (B→A) was greater than or equal to 1×10^−6 cm/s) | 65% | 76% | 8.23 ×10⁻⁶ cm/s | 49.5 ×10⁻⁶ cm/s | > 1 ×10⁻⁶ cm/s |  | efflux ratio at 120 min, 1 µM [4]: 6
24 | CCCC(=O)OCN(C(=O)C(CO)c1cccc(CNC(=O)OC(C)(C)C)c1)c1nnc(CCCCc2ccc(NC(=O)Cc3ccccc3)nn2)s1 (stereo not drawn) [Compound 567] |  |  |  |  |  |  | 430 nM | 
25 | CC(C)Cc1ccc(C(C)C(=O)Nc2nnc(CCCCc3ccc(NC(=O)Cc4ccccc4)nn3)s2)cc1 (stereo not drawn) [Compound 557] |  |  |  |  |  |  | 25 nM | 
26 | CC(C(=O)Nc1ccc(CCCCc2nnc(NC(=O)C(O)c3cccc(Cl)c3)s2)nn1)c1ccccc1 (stereo not drawn) [Compound 468] |  |  |  |  |  |  | 16 nM | 
